# pIC50: −log10 of the molar value.
# Experiments:
# [1] = system: VSV-Gpp; assay type: cell-based, HIV lentivirus pseudotyped with VSV-G
# [2] = system: HIV-1 93BR021; assay: Anti-HIV efficacy in fresh human PBMC (reverse transcriptase activity); assay type: cell-based; settings: Human immunodeficiency virus 1, PBMC, 168 h; 93BR021 (clade B, R5); PBMCs, MOI = 0.1, 7 days
# [3] = system: primary isolates of HIV and SIV; assay: organism not typed; assay type: cell-based, HIV-1, HIV-2
# [4] = system: HIV-1 (R5 JR-CSF); assay: Antiviral effect of PD before, during and after HIV-1 exposure (TZM-bl); assay type: cell-based
# [5] = Lactobacillus toxicity testing (all strains, summary); assay type: cell-based; settings: Lactobacillus (L. crispatus and L. jensenii), suspensions of vaginal commensal Lactobacillus strains; vaginal commensal bacteria Lactobacilli
# Procedure: (§1) Reference strains of L. crispatus and L. jensenii were obtained from the ATCC (Manassas, Va.) and cultured on Columbia blood agar plates at 35° C. in air enriched with 6% CO2. Bacterial suspensions were prepared in saline or ACES buffer to a density of 2 McFarland units (˜2×10^8 bacteria/mL), and exposed to PD (300 μM) or DMSO (10%) for 30 minutes at 37° C. After incubation, the cells were serially diluted in ACES buffer, pH 7.0 (Sigma-Aldrich, St. Louis, Mo.) and plated on blood agar plates to quantify colony forming unit per mL (CFU/mL)
# (§2) Different bacterial strains were incubated with 300 μM PD or solvent DMSO-containing control media at 37° C. for 30 min and plated on blood agar plates to estimate their corresponding colony forming units per ml (CFU/ml). Less than 1 log difference between control and test CFU is considered non-toxic 17.
# [6] = system: Lactobacilli; assay: as above; assay type: cell-based; settings: 300 μM PD, 37° C., 30 min
# Procedure: as §1, §2
# [7] = system: SIVmac251 32H; assay: SIV infectivity assay in TZM-bl cells; assay type: cell-based; settings: Simian immunodeficiency virus
# [8] = system: Dengue virus (DenV), serotype 2 New Guinea C strain; assay: Dengue virus plaque assay on Vero cells; assay type: cell-based; settings: 300 μM PD
# [9] = system: VSV-Gpp; assay type: cell-based, HIV lentivirus pseudotyped with VSV-G; remark: listed apart in the source
# [10] = system: HIV-1 92TH599; assay: HIV infectivity assay in TZM-bl cells; assay type: cell-based; settings: 92TH599 (clade B, X4); for pIC50: Human immunodeficiency virus 1, TZM-bl
# [11] = system: Sindbis virus (SINV); assay: Sindbis virus plaque assay on BHK-J cells; assay type: cell-based; settings: 300 μM PD
smiles,measurement,setting,value
"N=C1Sc2ccccc2C2=NCCCN12 [PD, PD 404,182]",reversal of PD's antiviral effect by liposomes,[1],not able to reverse PD's antiviral effect
same,pIC50,[2],6.22
same,IC90,[2],4260 nM
same,effect of seminal plasma on PD's anti-HIV activity,[3],does not negatively impact PD's anti-HIV activity
same,pIC50,"[3]; Human immunodeficiency virus 1, TZM-bl, read-out: IC50 range over tested subtypes of HIV-1",5.71 to 6.38
same,IC90,"[3]; Human immunodeficiency virus 1, TZM-bl, read-out: IC90 range over tested subtypes of HIV-1",1580 to 7190 nM
same,pIC50,[3]; TZM-bl,~6.00
same,pIC50,"[3]; TZM-bl, read-out: IC50 range",5.74 to 6.48
same,IC90,"[3]; TZM-bl, read-out: IC90 range",1400 to 6600 nM
same,pIC50,[3]; read-out: IC50 range,5.64 to 6.21
same,IC90,[3]; read-out: IC90 range,1800 to 7500 nM
same,"antiviral effect, PD added after virus inoculation","[4]; 10 μM PD, 1, 2, 4 and 8 h post treatment",loses its antiviral effect
same,"antiviral effect, extended preincubation of PD with cells","[4]; 10 μM PD, >16 h prior to virus inoculation",significantly reduces the compound's antiviral efficacy
same,"antiviral effect, PD added together with the virus","[4]; 10 μM PD, time zero",significantly inhibits HIV-1 infection
same,"antiviral effect, PD added before the virus","[4]; 10 μM PD, up to 8 h before the addition of the virus",retains its full potency
same,time antiviral activity is retained in cell culture prior to the addition of HIV-1,[4]; cell culture at 37° C.,at least 8 hours
same,CC50 at 30 min,[5],> 300000 nM
same,effect on Lactobacillus strains,[6],no adverse effect on all strains of bacteria tested
same,pIC50,[7],5.96
same,effect on infectivity of DenV,[8],no significant inhibitory effect
same,VSV-Gpp infectivity remaining,[9],0.1%
same,effect of fetal bovine serum on PD's antiviral activity,[9],no inhibitory effect
same,inhibition of VSV-Gpp supernatant infectivity relative to DMSO-treated virus,[9],~1000 fold
same,sensitivity of virus to PD in conditioned medium,[9],significantly less sensitive to inactivation by PD
same,IC50 (DMEM; IC90 per footnote),[10]; PD in DMEM + 10% FBS,5900 ± 300 nM
same,IC50 (Cervical Fluid; IC90 per footnote),[10]; PD in cervical fluids,6400 ± 500 nM
same,IC50 (Seminal Plasma; IC90 per footnote),[10]; PD in seminal plasma,6310 ± 520 nM
same,pIC50,[10]; PD in DMEM + 10% FBS,5.74
same,pIC50,[10]; PD in cervical fluids,5.66
same,pIC50,[10]; PD in seminal plasma,5.71
same,effect on infectivity of SINV,[11],no significant inhibitory effect
